# Source: US11746116B2, “Antibiotic resistance breakers” (KING'S COLLEGE LONDON, priority 2017, dated 2023)
# Counter-ions that a name gives are not always drawn. Like-named read-outs stand apart in the source and are kept apart here.
# Legend:
# Experiment in all cases: MIC, microdilution broth method
# EMRSA16 = type: cell-based, Staphylococcus aureus; conditions: for MIC, EMRSA16: ESKAPE panel, Gram-positive
# Ab17978 = type: cell-based; conditions: for MIC, Ab17978: ESKAPE panel, Gram-negative
# MSSA9144 = type: cell-based, Staphylococcus aureus; conditions: for MIC, MSSA9144: ESKAPE panel, Gram-positive
# M6 = type: cell-based; conditions: for MIC, M6: ESKAPE panel, Gram-negative
# VRE12201 = type: cell-based, Enterococcus faecalis; conditions: for MIC, VRE12201: ESKAPE panel, Gram-positive
# AYE = type: cell-based, Acinetobacter baumannii; conditions: AYE; Normal (no PMBN); in µg/mL
# EMRSA15 = type: cell-based, Staphylococcus aureus; conditions: for MIC, EMRSA15: ESKAPE panel, Gram-positive
# KP13368 = type: cell-based; conditions: for MIC, KP13368: ESKAPE panel, Gram-negative
# EC12923 = type: cell-based; conditions: for MIC, EC12923: ESKAPE panel, Gram-negative
# PA01 = type: cell-based, Pseudomonas aeruginosa; conditions: for MIC, PA01: ESKAPE panel, Gram-negative
# VSE775 = type: cell-based, Enterococcus faecalis; design: MIC, VSE775: unit not given beside the values; conditions: for MIC, VSE775: ESKAPE panel, Gram-positive
# VRE12204 = type: cell-based, Enterococcus faecium; conditions: in µg/mL; for MIC: VRE12204; for MIC, VRE12204: ESKAPE panel, Gram-positive
# [1] = Ab17978, Normal (no PMBN), in µg/mL
# [2] = KP13368, Normal (no PMBN), in µg/mL
# [3] = PA01, Normal (no PMBN), in µg/mL
"MIC (MSSA9144; MSSA9144, in µg/mL)","MIC (VRE12201; VRE12201, in µg/mL)","MIC (VSE775; VSE775, in µg/mL)",MIC (VRE12204),Structure (SMILES),"MIC (EMRSA16; EMRSA16, in µg/mL)",MIC (Ab17978; [1]),"MIC (M6; M6, Normal (no PMBN), in µg/mL)",MIC (AYE),"MIC (EMRSA15; EMRSA15, in µg/mL)",MIC (KP13368; [2]),"MIC (EC12923; EC12923, in µg/mL)",MIC (PA01; [3]),other results
≤0.12,2,4,4,COC(=O)c1cnc(N2CCN(c3c(F)cc4c(=O)c(C(=O)O)cn5c4c3OC[C@@H]5C)CC2)nc1 [Compound 82-KSN-L8],16,2,4,–,8,32,4,32,–
2,8,8,16,"C[C@H]1COc2c(N3CCC(n4cccn4)CC3)c(F)cc3c(=O)c(C(=O)O)cn1c23 [ML-83-041, (S)-10-(4-(1H-pyrazol-1-yl)piperidin-1-yl)-9-fluoro-3-methyl-7-oxo-2,3-dihydro-7H-[1,4]oxazino[2,3,4-ij]quinoline-6-carboxylic acid]",–,4-8,4,–,–,32,2,64,–

# Second part, the compound before the results:
Structure (SMILES),"MIC (MSSA9144; MSSA9144, in µg/mL)","MIC (VRE12201; VRE12201, in µg/mL)","MIC (VSE775; VSE775, in µg/mL)",MIC (VRE12204),"MIC (EMRSA16; EMRSA16, in µg/mL)",MIC (Ab17978; [1]),"MIC (M6; M6, Normal (no PMBN), in µg/mL)",MIC (AYE),"MIC (EMRSA15; EMRSA15, in µg/mL)",MIC (KP13368; [2]),"MIC (EC12923; EC12923, in µg/mL)",MIC (PA01; [3]),other results
"C[C@H]1COc2c(N3CCC(Nc4ncccn4)C3)c(F)cc3c(=O)c(C(=O)O)cn1c23 (stereo partly drawn) [Compound 82-KSN-L7, (3S)-9-fluoro-3-methyl-7-oxo-10-(3-(pyrimidin-2-ylamino)-pyrrolidin-1-yl)-2,3-dihydro-7H-[1,4]oxazino[2,3,4-ij]quinoline-6-carboxylic acid]",≤0.125-4,0.5,1-2,4,4,1,2-4,64,4,16,1,16,–
"C[C@H]1COc2c(N3CCC(N4CCN(C)CC4)C3)c(F)cc3c(=O)c(C(=O)O)cn1c23 (stereo partly drawn) [KSN-L31, (3S)-9-fluoro-3-methyl-10-(3-(4-methylpiperazin-1-yl)pyrrolidin-1-yl)-7-oxo-2,3-dihydro-7H-[1,4]oxazino[2,3,4-ij]quinoline-6-carboxylic acid]",–,–,–,–,–,–,–,–,–,–,–,–,"MIC, EMRSA16 (EMRSA16; in µg/mL): 64; MIC, Ab17978 (Ab17978; in µg/mL): 4; MIC, MSSA9144 (MSSA9144; in µg/mL): 0.5-1; MIC, M6 (M6; in µg/mL): 4; MIC, VRE12201 (VRE12201; in µg/mL): 2; MIC, EMRSA15 (EMRSA15; in µg/mL): 64; MIC, KP13368 (KP13368): 64 µg/mL; MIC, EC12923 (EC12923; in µg/mL): 2; MIC, PA01 (PA01; in µg/mL): 64; MIC, VSE775 (VSE775): 4; MIC, VRE12204 (VRE12204): 8"
"C[C@H]1COc2c(N3CCC(N4CCOCC4)C3)c(F)cc3c(=O)c(C(=O)O)cn1c23 (stereo partly drawn) [KSN-L33, (3S)-9-fluoro-3-methyl-10-(3-morpholinopyrrolidin-1-yl)-7-oxo-2,3-dihydro-7H-[1,4]oxazino[2,3,4-ij]quinoline-6-carboxylic acid]",–,–,–,–,–,–,–,–,–,–,–,–,"MIC, EMRSA16 (EMRSA16; in µg/mL): 16-32; MIC, Ab17978 (Ab17978; in µg/mL): 2; MIC, MSSA9144 (MSSA9144; in µg/mL): 0.25; MIC, M6 (M6; in µg/mL): 8; MIC, VRE12201 (VRE12201; in µg/mL): 2; MIC, EMRSA15 (EMRSA15; in µg/mL): 16; MIC, KP13368 (KP13368): 32 µg/mL; MIC, EC12923 (EC12923; in µg/mL): 2; MIC, PA01 (PA01; in µg/mL): 32-64; MIC, VSE775 (VSE775): 4; MIC, VRE12204 (VRE12204): 4"
O=C(O)c1cn(C2CC2)c2cc(N3CCN(Cc4cccc5c4OCO5)CC3)c(F)cc2c1=O [ML-77-032],0.25-1,1,2,–,64,0.25,2,64,–,–,–,16,–
O=C(O)c1cn(C2CC2)c2cc(N3CCN(Cc4ccccc4)CC3)c(F)cc2c1=O [ML-77-046],0.12-0.25,1-2,2-4,4-8,32,0.25,2,64-128,–,–,–,–,–
O=C(O)c1cn(C2CC2)c2cc(N3CCN(Cc4ccc(CO)cc4)CC3)c(F)cc2c1=O [ML-77-147],<0.12,0.5,1,–,8,0.25-0.5,0.5-1,16-32,8,–,–,–,–
C[C@H]1COc2c(N3CCN(c4ncc(F)cn4)CC3)c(F)cc3c(=O)c(C(=O)O)cn1c23 [ML-83-010],–,–,–,–,–,–,–,–,–,–,–,–,"MIC, EMRSA16 (EMRSA16; in µg/mL): 2; MIC (EMRSA16; Staphylococcus aureus (EMRSA16), Gram-Positive (Table 14), read-out: MIC): 2 µg/mL; MIC (Ab17978; Acinetobacter baumannii (AB17978), Gram-Negative, read-out: MIC): 2 µg/mL; MIC, Ab17978 (Ab17978; in µg/mL): 2; MIC (MSSA9144; Staphylococcus aureus (MSSA9144), Gram-Positive, read-out: MIC): ≤ 0.125 µg/mL; MIC, M6 (M6; in µg/mL): 4; MIC (M6; Klebsiella pneumoniae (M6), Gram-Negative, read-out: MIC): 4 µg/mL; MIC (VRE12201; Enterococcus faecalis, Enterococcus (VRE12201), Gram-Positive, read-out: MIC): ≤ 0.125 µg/mL; MIC, EMRSA15 (EMRSA15; in µg/mL): 2; MIC (EMRSA15; Staphylococcus aureus, Staphylococcus aureus (EMRSA15), Gram-Positive (Table 14), read-out: MIC): 2 µg/mL; MIC, KP13368 (KP13368): 32 µg/mL; MIC (KP13368; Klebsiella pneumoniae (KP13368), Gram-Negative, read-out: MIC): 32 µg/mL; MIC, EC12923 (EC12923; in µg/mL): 2; MIC (EC12923; Escherichia coli (EC12923), Gram-Negative, read-out: MIC): 2 µg/mL; MIC, PA01 (PA01; in µg/mL): 64; MIC (PA01; Pseudomonas aeruginosa (PA01), Gram-Negative, read-out: MIC): 64 µg/mL; MIC, VSE775 (VSE775): < 0.125 - 0.5; MIC (VSE775; Enterococcus faecalis, Enterococcus (VRE775), Gram-Positive, read-out: MIC): 0.5 µg/mL; MIC, VRE12204 (VRE12204): 1-4"
"Cc1cc(N2CCN(c3c(F)cc4c(=O)c(C(=O)O)cn5c4c3OC[C@@H]5C)CC2)nc(C(C)C)n1 [ML-83-012, hydrochloride]",–,–,–,–,–,–,–,–,–,–,–,–,"MIC (EMRSA16; Staphylococcus aureus (EMRSA16), Gram-Positive (Table 14), hydrochloride): 2 µg/mL; MIC, Ab17978 (Ab17978; hydrochloride, in µg/mL): 8; MIC, MSSA9144 (MSSA9144; in µg/mL): 0.25; MIC (MSSA9144; Staphylococcus aureus (MSSA9144), Gram-Positive): 0.25 µg/mL; MIC, M6 (M6; hydrochloride, in µg/mL): 16; MIC (KP13368; Klebsiella pneumoniae (KP13368), Gram-Negative): 64 µg/mL; MIC, EC12923 (EC12923; hydrochloride, in µg/mL): 4; MIC, PA01 (PA01; hydrochloride, in µg/mL): 32; MIC (VSE775; Enterococcus (VRE775), Gram-Positive): 0 to 5 µg/mL"
"C[C@H]1COc2c(N3CCN(c4ccccn4)CC3)c(F)cc3c(=O)c(C(=O)O)cn1c23 [ML-83-0018, (S)-9-fluoro-3-methyl-7-oxo-w-(4-(pyridin-2-yl)piperazin-1-yl)-2,3-dihydro-7H-[1,4]oxazino[2,3,4-ij]quinoline-6-carboxylic acid]",≤0.12,0.25,0.25-0.5,2,8,2,8,–,4,32,2-4,64,–
